Experimental data as given in PubChem BioAssay AID248 (DTP/NCI, 2004).
Inconclusive results and toxic doses are left out. Cut-off read from the data, not from the text of the source: active = T/C of 150% or more; inactive = T/C below 125%.

Tested on: L1210 leukemia ip in BDF1 mice, survival T/C
Assay: NCI In Vivo Anticancer Drug Screen. Data for tumor model L1210 Leukemia (intraperitoneal) in B6D2F1 (BDF1) mice
Conditions: endpoint: mean survival time, higher = longer survival
How it was run: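 Each compound was tested against a transplantable tumor grown in mice. The endpoint was survival, with treated animals benchmarked against vehicle controls as a simple ratio.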

[1] = dose: 100.0 mg/kg/injection, schedule: Q01DX001 (ip), vehicle: carboxymethylcellulose (CMC)
[2] = dose: 200.0 mg/kg/injection, schedule: Q01DX001 (ip), vehicle: carboxymethylcellulose (CMC)
[3] = dose: 400.0 mg/kg/injection, schedule: Q01DX001 (ip), vehicle: carboxymethylcellulose (CMC)

Measured: T/C

CNc1nc(N)nc(Nc2ccc(I)cc2)c1N=O
inactive: [1] 105 % of control | dose: 100.0 mg/kg/injection, schedule: Q01DX009 (ip), vehicle: acetone 107 % of control | dose: 100.0 mg/kg/injection, schedule: Q04DX003 (ip), vehicle: acetone 115 % of control | [2] 110 % of control | dose: 200.0 mg/kg/injection, schedule: Q01DX009 (ip), vehicle: acetone 107 % of control | dose: 200.0 mg/kg/injection, schedule: Q04DX003 (ip), vehicle: acetone 105 % of control | [3] 100 % of control | dose: 400.0 mg/kg/injection, schedule: Q01DX009 (ip), vehicle: acetone 98 % of control | dose: 400.0 mg/kg/injection, schedule: Q04DX003 (ip), vehicle: acetone 98 % of control

C=C1C(=O)OC2C=C(C(O)CC(C)O)C(C)CCC12 (stereo unspecified)
inactive: dose: 50.0 mg/kg/injection, schedule: Q01DX001 (ip), vehicle: water 89 % of control | dose: 100.0 mg/kg/injection, schedule: Q01DX001 (ip), vehicle: water 95 % of control | dose: 200.0 mg/kg/injection, schedule: Q01DX001 (ip), vehicle: water 94 % of control

CCCC/C(=N/NC(N)=O)C(OC)OC
inactive: dose: 100.0 mg/kg/injection, schedule: Q01DX001 (ip), vehicle: other 92 % of control | dose: 200.0 mg/kg/injection, schedule: Q01DX001 (ip), vehicle: other 86 % of control | dose: 400.0 mg/kg/injection, schedule: Q01DX001 (ip), vehicle: other 94 % of control

C[N+](C)(C)CCOC(=O)c1ccc(CCl)cc1
inactive: dose: 25.0 mg/kg/injection, schedule: Q04DX002 (ip), vehicle: saline with Tween-80 113 % of control | dose: 50.0 mg/kg/injection, schedule: Q04DX002 (ip), vehicle: saline with Tween-80 102 % of control | dose: 100.0 mg/kg/injection, schedule: Q04DX002 (ip), vehicle: other 98 % of control | dose: 100.0 mg/kg/injection, schedule: Q04DX002 (ip), vehicle: saline with Tween-80 110 % of control

CC1CCCN(C(=O)/C=C/c2ccccc2)C1 (stereo unspecified)
inactive: dose: 50.0 mg/kg/injection, schedule: Q04DX002 (ip), vehicle: saline 104 % of control | dose: 100.0 mg/kg/injection, schedule: Q04DX002 (ip), vehicle: Klucel (hydroxypropylcellulose) (HPC) 91 % of control | dose: 100.0 mg/kg/injection, schedule: Q04DX002 (ip), vehicle: saline 93 % of control | dose: 200.0 mg/kg/injection, schedule: Q04DX002 (ip), vehicle: Klucel (hydroxypropylcellulose) (HPC) 95 % of control | dose: 200.0 mg/kg/injection, schedule: Q04DX002 (ip), vehicle: saline 97 % of control | dose: 400.0 mg/kg/injection, schedule: Q04DX002 (ip), vehicle: Klucel (hydroxypropylcellulose) (HPC) 95 % of control

CCCCC(=O)N/N=C/c1c[nH]c2ccc(Br)cc12
inactive: [1] 88 % of control | [2] 93 % of control | [3] 93 % of control

Cc1cccc(NC(=O)C(Br)C(Br)c2ccccc2)c1C (stereo unspecified)
inactive: dose: 100.0 mg/kg/injection, schedule: Q01DX009 (ip), vehicle: Klucel (hydroxypropylcellulose) (HPC) 94 % of control | dose: 200.0 mg/kg/injection, schedule: Q01DX009 (ip), vehicle: Klucel (hydroxypropylcellulose) (HPC) 105 % of control | dose: 400.0 mg/kg/injection, schedule: Q01DX009 (ip), vehicle: Klucel (hydroxypropylcellulose) (HPC) 105 % of control
